Laboratory results as given in ChEMBL document CHEMBL4265893, “Design, synthesis and biological evaluation of ring A modified 11-keto-boswellic acid derivatives as Pin1 inhibitors with remarkable anti-prostate cancer activity” (Bioorg Med Chem Lett, 2018).

Assays:
[1] = molecular target: T1, Peptidyl-prolyl cis-trans isomerase NIMA-interacting 1 (Homo sapiens, UniProt Q13526); assay: Inhibition of recombinant N-terminal His6-tagged human Pin1 using Suc-Ala-Glu-cis-Pro-Phe-4-nitroanilide as substrate preincubated for 30 mins followed by substrate addition measured for 90 secs
T1 sequence (Q13526 whole entry): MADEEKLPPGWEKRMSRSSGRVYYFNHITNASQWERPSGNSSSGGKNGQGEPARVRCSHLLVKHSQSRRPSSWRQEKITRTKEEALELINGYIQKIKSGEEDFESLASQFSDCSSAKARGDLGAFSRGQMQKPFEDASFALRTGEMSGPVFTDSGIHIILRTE

PC-3 [2] = assay: Antiproliferative activity against human PC3 cells after 96 hrs by MTT assay; type: functional; conditions: PC-3, 96 h
[3] = molecular target: T1, Peptidyl-prolyl cis-trans isomerase NIMA-interacting 1; assay: Inhibition of recombinant N-terminal His6-tagged human Pin1 at 10 uM using Suc-Ala-Glu-cis-Pro-Phe-4-nitroanilide as substrate preincubated for 30 mins followed by substrate addition measured for 90 secs
PC-3 [4] = assay: Cell cycle arrest in human PC3 cells assessed as accumulation at G0/G1 phase at 1 uM after 24 hrs by RNase/propidium iodide staining-based flow cytometric analysis (reference value: 55.03%); type: functional
PC-3 [5] = assay: Cell cycle arrest in human PC3 cells assessed as accumulation at G0/G1 phase at 0.5 uM after 24 hrs by RNase/propidium iodide staining-based flow cytometric analysis (reference value: 55.03%); type: functional
PC-3 [6] = assay: Induction of apoptosis in human PC3 cells assessed as downregulation of Cyclin D1 expression after 24 hrs by Western blot analysis; type: functional, cell-based
PC-3 [7] = assay: Cell cycle arrest in human PC3 cells assessed as accumulation at G0/G1 phase at 0.25 uM after 24 hrs by RNase/propidium iodide staining-based flow cytometric analysis (reference value: 55.03%); type: functional

Row | Structure (SMILES) | IC50 [1] [µM] | GI50 (PC-3 [2]) [µM] | inhibition [3] [%] | Activity (PC-3 [4]) [%] | Activity (PC-3 [5]) [%] | Activity (PC-3 [6]) | Activity (PC-3 [7]) [%]
1 | C[C@H]1[C@H](C)CC[C@]2(C)CC[C@]3(C)C(=CC(=O)[C@@H]4[C@@]5(C)CC[C@@H](OC(=O)COc6ccc(Oc7ccccc7)cc6)[C@](C)(C(=O)O)[C@@H]5CC[C@]43C)[C@H]12 | 1.58 | 12.5 | 90 | – | – | – | –
2 | CC1CCN(CC(=O)O[C@@H]2CC[C@@]3(C)[C@@H](CC[C@]4(C)[C@@H]3C(=O)C=C3[C@@H]5[C@@H](C)[C@H](C)CC[C@]5(C)CC[C@]34C)[C@@]2(C)C(=O)O)CC1 | – | 15.6 | 78 | – | – | – | –
3 | C[C@H]1[C@H](C)CC[C@]2(C)CC[C@]3(C)C(=CC(=O)[C@@H]4[C@@]5(C)CC[C@@H](OC(=O)CN(C)c6ccccc6)[C@](C)(C(=O)O)[C@@H]5CC[C@]43C)[C@H]12 | 1.27 | 13.7 | 94 | – | – | – | –
4 | CCN(CC)CC(=O)O[C@@H]1CC[C@@]2(C)[C@@H](CC[C@]3(C)[C@@H]2C(=O)C=C2[C@@H]4[C@@H](C)[C@H](C)CC[C@]4(C)CC[C@]23C)[C@@]1(C)C(=O)O | – | 10.7 | 58 | – | – | – | –
5 | COC(=O)[C@@]1(C)c2[nH]nc(C(=O)O)c2C[C@@]2(C)[C@H]1CC[C@]1(C)[C@@H]2C(=O)C=C2[C@@H]3[C@@H](C)[C@H](C)CC[C@]3(C)CC[C@]21C | – | 37.6 | 56 | – | – | – | –
6 | C[C@H]1[C@H](C)CC[C@]2(C)CC[C@]3(C)C(=CC(=O)[C@@H]4[C@@]5(C)C/C(=C\c6ccccc6)C(=O)[C@](C)(C(=O)OCc6ccccc6)[C@@H]5CC[C@]43C)[C@H]12 | – | > 50 | 37 | – | – | – | –
7 | C[C@H]1[C@H](C)CC[C@]2(C)CC[C@]3(C)C(=CC(=O)[C@@H]4[C@@]5(C)CC[C@@H](OC(=O)COc6ccc(-c7cc(-c8ccccc8)[nH]n7)cc6)[C@](C)(C(=O)O)[C@@H]5CC[C@]43C)[C@H]12 | – | 7.8 | 66 | – | – | – | –
8 | C[C@H]1[C@H](C)CC[C@]2(C)CC[C@]3(C)C(=CC(=O)[C@@H]4[C@@]5(C)CC[C@@H](OC(=O)CN6CCOCC6)[C@](C)(C(=O)O)[C@@H]5CC[C@]43C)[C@H]12 | – | 10.6 | 78 | – | – | – | –
9 | C[C@H]1[C@H](C)CC[C@]2(C)CC[C@]3(C)C(=CC(=O)[C@@H]4[C@@]5(C)C/C(=C\C(=O)O)C(=O)[C@](C)(C(=O)OCc6ccccc6)[C@@H]5CC[C@]43C)[C@H]12 | 0.46 | 1.82 | 97 | 72 | 67.62 | Dose-dependent effect | 62.35
10 | C[C@H]1[C@H](C)CC[C@]2(C)CC[C@]3(C)C(=CC(=O)[C@@H]4[C@@]5(C)C/C(=C\C(=O)O)C(=O)[C@](C)(C(=O)N6CCOCC6)[C@@H]5CC[C@]43C)[C@H]12 | 2.68 | 2.78 | 82 | – | – | – | –
11 | C[C@H]1[C@H](C)CC[C@]2(C)CC[C@]3(C)C(=CC(=O)[C@@H]4[C@@]5(C)CC[C@@H](OC(=O)COc6ccccc6)[C@](C)(C(=O)O)[C@@H]5CC[C@]43C)[C@H]12 | – | 18.5 | 35 | – | – | – | –
12 | C[C@H]1[C@H](C)CC[C@]2(C)CC[C@]3(C)C(=CC(=O)[C@@H]4[C@@]5(C)Cc6c(C(=O)O)n[nH]c6[C@](C)(C(=O)OCc6ccccc6)[C@@H]5CC[C@]43C)[C@H]12 | – | 22.7 | 31 | – | – | – | –
13 | C[C@H]1[C@H](C)CC[C@]2(C)CC[C@]3(C)C(=CC(=O)[C@@H]4[C@@]5(C)CC[C@@H](OC(=O)CN6CCN(c7cccc(C(F)(F)F)c7)CC6)[C@](C)(C(=O)O)[C@@H]5CC[C@]43C)[C@H]12 | 2.18 | 12.5 | 80 | – | – | – | –
14 | COc1ccccc1/C=C1\C[C@]2(C)[C@H]3C(=O)C=C4[C@@H]5[C@@H](C)[C@H](C)CC[C@]5(C)CC[C@@]4(C)[C@]3(C)CC[C@H]2[C@@](C)(C(=O)OCc2ccccc2)C1=O | – | > 50 | 57 | – | – | – | –
15 | COC(=O)[C@@]1(C)C(=O)/C(=C/c2ccccc2C(=O)O)C[C@]2(C)[C@H]3C(=O)C=C4[C@@H]5[C@@H](C)[C@H](C)CC[C@]5(C)CC[C@@]4(C)[C@]3(C)CC[C@@H]12 | – | 15.2 | 69 | – | – | – | –
16 | C[C@H]1[C@H](C)CC[C@]2(C)CC[C@]3(C)C(=CC(=O)[C@@H]4[C@@]5(C)CC[C@@H](OC(=O)COc6ccc(C(=O)/C=C/c7ccccc7)cc6)[C@](C)(C(=O)O)[C@@H]5CC[C@]43C)[C@H]12 | 0.97 | 8.84 | 95 | – | – | – | –
17 | COC(=O)[C@@]1(C)C(=O)/C(=C/C(=O)O)C[C@]2(C)[C@H]3C(=O)C=C4[C@@H]5[C@@H](C)[C@H](C)CC[C@]5(C)CC[C@@]4(C)[C@]3(C)CC[C@@H]12 | – | 8 | 51 | – | – | – | –
18 | C[C@H]1[C@H](C)CC[C@]2(C)CC[C@]3(C)C(=CC(=O)[C@@H]4[C@@]5(C)CC[C@@H](OC(=O)CN6CCN(C)CC6)[C@](C)(C(=O)O)[C@@H]5CC[C@]43C)[C@H]12 | – | 37.9 | 24 | – | – | – | –
19 | CC(=O)O[C@@H]1CC[C@@]2(C)[C@@H](CC[C@]3(C)[C@@H]2C(=O)C=C2[C@@H]4[C@@H](C)[C@H](C)CC[C@]4(C)CC[C@]23C)[C@@]1(C)C(=O)O [AKBA] | 50.4 | 31.9 | 26 | – | – | – | –
20 | C[C@H]1[C@H](C)CC[C@]2(C)CC[C@]3(C)C(=CC(=O)[C@@H]4[C@@]5(C)CC[C@@H](OC(=O)CN(CCO)CCO)[C@](C)(C(=O)O)[C@@H]5CC[C@]43C)[C@H]12 | – | > 50 | 59 | – | – | – | –
21 | C[C@H]1[C@H](C)CC[C@]2(C)CC[C@]3(C)C(=CC(=O)[C@@H]4[C@@]5(C)C/C(=C\c6ccccc6C(=O)O)C(=O)[C@](C)(C(=O)OCc6ccccc6)[C@@H]5CC[C@]43C)[C@H]12 | 0.68 | 3.29 | 94 | – | – | – | –
22 | C[C@H]1[C@H](C)CC[C@]2(C)CC[C@]3(C)C(=CC(=O)[C@@H]4[C@@]5(C)C/C(=C\c6ccc(C(=O)O)cc6)C(=O)[C@](C)(C(=O)OCc6ccccc6)[C@@H]5CC[C@]43C)[C@H]12 | – | 32.1 | 40 | – | – | – | –
23 | C[C@H]1[C@H](C)CC[C@]2(C)CC[C@]3(C)C(=CC(=O)[C@@H]4[C@@]5(C)Cc6c(C(=O)O)noc6[C@](C)(C(=O)OCc6ccccc6)[C@@H]5CC[C@]43C)[C@H]12 | – | 26.9 | 29 | – | – | – | –
24 | COC(=O)[C@@]1(C)C(=O)/C(=C/c2ccc(C(=O)O)cc2)C[C@]2(C)[C@H]3C(=O)C=C4[C@@H]5[C@@H](C)[C@H](C)CC[C@]5(C)CC[C@@]4(C)[C@]3(C)CC[C@@H]12 | – | > 50 | 43 | – | – | – | –
25 | C[C@H]1[C@H](C)CC[C@]2(C)CC[C@]3(C)C(=CC(=O)[C@@H]4[C@@]5(C)CC[C@@H](OC(=O)CNc6ccccc6)[C@](C)(C(=O)O)[C@@H]5CC[C@]43C)[C@H]12 | – | 12.1 | 46 | – | – | – | –
26 | COC(=O)[C@@]1(C)c2onc(C(=O)O)c2C[C@@]2(C)[C@H]1CC[C@]1(C)[C@@H]2C(=O)C=C2[C@@H]3[C@@H](C)[C@H](C)CC[C@]3(C)CC[C@]21C | – | 37.6 | 41 | – | – | – | –
27 | C[C@H]1[C@H](C)CC[C@]2(C)CC[C@]3(C)C(=CC(=O)[C@@H]4[C@@]5(C)CC[C@@H](OC(=O)CN6CCNCC6)[C@](C)(C(=O)O)[C@@H]5CC[C@]43C)[C@H]12 | – | > 50 | 49 | – | – | – | –
28 | C[C@H]1[C@H](C)CC[C@]2(C)CC[C@]3(C)C(=CC(=O)[C@@H]4[C@@]5(C)CC[C@@H](OC(=O)CN6CCCCC6)[C@](C)(C(=O)O)[C@@H]5CC[C@]43C)[C@H]12 | 1.01 | 11.6 | 95 | – | – | – | –
29 | CC(=O)N1N=C(c2ccc(OCC(=O)O[C@@H]3CC[C@@]4(C)[C@@H](CC[C@]5(C)[C@@H]4C(=O)C=C4[C@@H]6[C@@H](C)[C@H](C)CC[C@]6(C)CC[C@]45C)[C@@]3(C)C(=O)O)cc2)CC1c1ccccc1 (some centres undefined) | – | 9.42 | 32 | – | – | – | –
30 | C[C@H]1[C@H](C)CC[C@]2(C)CC[C@]3(C)C(=CC(=O)[C@@H]4[C@@]5(C)C/C(=C\C(=O)O)C(=O)[C@](C)(C(=O)N6CCCCC6)[C@@H]5CC[C@]43C)[C@H]12 | 0.55 | 7.11 | 89 | – | – | – | –
